Laboratory results published in ChEMBL document CHEMBL2331379, “Synthesis of derivatives of methyl rosmarinate and their inhibitory activities against matrix metalloproteinase-1 (MMP-1)” (Eur J Med Chem, 2013).
pIC50: −log10 of the molar value.

Experiments:
Interstitial collagenase = molecular target: T1, Interstitial collagenase (Homo sapiens, UniProt P03956); assay: Inhibition of human recombinant MMP1 catalytic domain using Dnp-Pro-beta-cyclohexyl-Ala-Gly-Cys(Me)-His-Lys-(Nma)-NH2 as substrate preincubated with enzyme for 30 mins prior to substrate addition monitored for 60 mins by fluorometric assay
T1 sequence (P03956 whole entry): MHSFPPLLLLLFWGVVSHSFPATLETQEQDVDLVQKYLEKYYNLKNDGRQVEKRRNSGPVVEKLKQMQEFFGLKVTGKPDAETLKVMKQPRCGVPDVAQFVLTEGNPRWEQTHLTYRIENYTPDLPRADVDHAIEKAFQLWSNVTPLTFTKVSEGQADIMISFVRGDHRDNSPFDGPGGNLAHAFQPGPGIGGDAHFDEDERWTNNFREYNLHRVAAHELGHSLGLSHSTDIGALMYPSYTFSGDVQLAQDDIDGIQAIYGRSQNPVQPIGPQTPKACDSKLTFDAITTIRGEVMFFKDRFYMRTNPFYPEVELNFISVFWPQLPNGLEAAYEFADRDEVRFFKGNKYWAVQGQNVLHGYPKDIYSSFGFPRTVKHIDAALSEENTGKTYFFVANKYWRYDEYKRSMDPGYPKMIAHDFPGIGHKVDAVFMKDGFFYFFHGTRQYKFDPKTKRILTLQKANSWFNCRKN

Collagenase 3 = Collagenase 3 (Homo sapiens, UniProt P45452); assay: Inhibition of MMP13 (unknown origin)
[1] = molecular target: Macrophage metalloelastase (Homo sapiens, UniProt P39900); assay: Inhibition of MMP12 (unknown origin)
Chain of Macrophage metalloelastase (P39900 whole entry): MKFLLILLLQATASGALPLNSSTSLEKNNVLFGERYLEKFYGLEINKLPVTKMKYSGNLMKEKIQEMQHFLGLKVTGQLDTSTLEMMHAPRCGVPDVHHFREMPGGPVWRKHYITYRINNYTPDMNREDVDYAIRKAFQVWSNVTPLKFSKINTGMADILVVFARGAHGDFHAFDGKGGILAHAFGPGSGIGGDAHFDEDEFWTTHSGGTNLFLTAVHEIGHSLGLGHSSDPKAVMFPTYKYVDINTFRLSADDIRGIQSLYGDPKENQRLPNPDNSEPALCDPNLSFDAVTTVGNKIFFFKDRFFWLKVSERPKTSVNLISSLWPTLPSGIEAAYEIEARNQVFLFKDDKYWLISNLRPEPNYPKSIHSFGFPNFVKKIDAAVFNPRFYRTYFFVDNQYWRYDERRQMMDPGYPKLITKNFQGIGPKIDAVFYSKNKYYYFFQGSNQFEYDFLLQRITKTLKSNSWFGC

Stromelysin-1 = Stromelysin-1 (Homo sapiens, UniProt P08254); assay: Inhibition of MMP3 (unknown origin)
Chain of Stromelysin-1 (P08254 whole entry): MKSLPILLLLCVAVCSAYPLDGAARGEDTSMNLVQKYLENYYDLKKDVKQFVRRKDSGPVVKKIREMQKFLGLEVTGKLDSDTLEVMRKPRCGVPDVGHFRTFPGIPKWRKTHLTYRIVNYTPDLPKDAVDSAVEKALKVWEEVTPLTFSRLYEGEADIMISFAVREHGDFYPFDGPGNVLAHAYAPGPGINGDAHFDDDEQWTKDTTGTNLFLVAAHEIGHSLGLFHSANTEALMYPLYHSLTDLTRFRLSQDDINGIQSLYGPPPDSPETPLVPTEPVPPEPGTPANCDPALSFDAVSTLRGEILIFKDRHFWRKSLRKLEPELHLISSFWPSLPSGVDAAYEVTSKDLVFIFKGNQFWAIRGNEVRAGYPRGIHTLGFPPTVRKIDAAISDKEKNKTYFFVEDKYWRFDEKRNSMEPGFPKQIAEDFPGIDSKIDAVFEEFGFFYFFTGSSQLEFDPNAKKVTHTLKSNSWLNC

[2] = molecular target: Matrix metalloproteinase-9 (Homo sapiens, UniProt P14780); assay: Inhibition of MMP9 (unknown origin)
Chain of Matrix metalloproteinase-9 (P14780 whole entry): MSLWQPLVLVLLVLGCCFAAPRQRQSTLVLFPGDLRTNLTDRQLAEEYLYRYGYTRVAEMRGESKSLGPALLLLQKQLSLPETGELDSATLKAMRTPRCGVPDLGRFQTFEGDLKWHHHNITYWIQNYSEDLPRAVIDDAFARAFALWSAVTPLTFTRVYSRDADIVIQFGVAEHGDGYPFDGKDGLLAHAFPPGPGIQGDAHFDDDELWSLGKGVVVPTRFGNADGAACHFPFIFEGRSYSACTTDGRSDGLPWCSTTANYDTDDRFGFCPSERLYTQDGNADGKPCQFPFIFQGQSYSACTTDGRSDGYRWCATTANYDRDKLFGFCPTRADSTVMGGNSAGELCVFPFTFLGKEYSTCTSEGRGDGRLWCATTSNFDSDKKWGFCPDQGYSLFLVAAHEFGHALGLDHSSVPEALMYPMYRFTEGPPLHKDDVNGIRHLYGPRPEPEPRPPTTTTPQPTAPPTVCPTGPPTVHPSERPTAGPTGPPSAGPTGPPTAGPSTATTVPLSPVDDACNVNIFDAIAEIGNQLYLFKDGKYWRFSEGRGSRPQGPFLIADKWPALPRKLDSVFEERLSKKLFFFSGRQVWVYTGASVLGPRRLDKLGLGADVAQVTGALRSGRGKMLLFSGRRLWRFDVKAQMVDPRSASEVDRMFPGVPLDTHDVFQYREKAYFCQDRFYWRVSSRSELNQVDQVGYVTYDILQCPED

[3] = molecular target: 72 kDa type IV collagenase (Homo sapiens, UniProt P08253); assay: Inhibition of MMP2 (unknown origin)
Chain of 72 kDa type IV collagenase (P08253 whole entry): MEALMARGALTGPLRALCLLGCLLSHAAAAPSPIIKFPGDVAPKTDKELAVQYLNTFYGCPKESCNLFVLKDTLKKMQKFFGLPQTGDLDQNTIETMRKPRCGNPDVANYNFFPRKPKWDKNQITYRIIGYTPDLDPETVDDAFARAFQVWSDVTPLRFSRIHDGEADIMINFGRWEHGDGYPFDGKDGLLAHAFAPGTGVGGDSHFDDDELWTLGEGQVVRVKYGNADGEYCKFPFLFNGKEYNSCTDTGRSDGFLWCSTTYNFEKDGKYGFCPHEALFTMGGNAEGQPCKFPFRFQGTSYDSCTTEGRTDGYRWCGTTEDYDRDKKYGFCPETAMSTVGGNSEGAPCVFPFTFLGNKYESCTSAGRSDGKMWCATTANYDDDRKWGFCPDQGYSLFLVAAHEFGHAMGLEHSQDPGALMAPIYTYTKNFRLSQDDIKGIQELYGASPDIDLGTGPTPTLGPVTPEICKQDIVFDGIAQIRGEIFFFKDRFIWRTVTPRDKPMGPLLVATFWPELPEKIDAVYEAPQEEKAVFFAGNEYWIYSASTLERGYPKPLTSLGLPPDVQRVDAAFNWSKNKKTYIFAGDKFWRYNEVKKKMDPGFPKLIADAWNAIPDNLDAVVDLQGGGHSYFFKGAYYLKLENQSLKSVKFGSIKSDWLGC

COc1ccc(/C=C/C(=O)OC(Cc2ccc(OC)c(OC)c2)C(=O)O)cc1OC (stereo not given)
pIC50 (Interstitial collagenase): < 4.00

COc1ccc(/C=C/C(=O)OC(Cc2ccc(OC)c(OC)c2)C(=O)O)cc1 (stereo not given)
pIC50 (Interstitial collagenase): < 4.00

COc1ccc(CC(OC(=O)/C=C/c2ccc3ccccc3c2)C(=O)O)cc1OC (stereo not given)
pIC50 (Interstitial collagenase): < 4.00

COc1ccc(CC(OC(=O)/C=C/c2ccc(-c3ccccc3)cc2)C(=O)O)cc1OC (stereo not given)
pIC50 (Interstitial collagenase): 5.07

C=CCOC(=O)C(Cc1ccc(OC)c(OC)c1)OC(=O)/C=C/c1ccc(OCc2ccccc2)cc1 (stereo not given)
pIC50 (Interstitial collagenase): < 4.00

COc1ccc(CC(OC(=O)/C=C/c2ccc(Br)cc2)C(=O)NO)cc1OC (stereo not given)
pIC50 (Interstitial collagenase): 5.12

COc1ccc(CC(OC(=O)/C=C/c2ccc(OCc3ccccc3)c(OCc3ccccc3)c2)C(=O)O)cc1OC (stereo not given)
pIC50 (Interstitial collagenase): 5.60

C=CCOC(=O)C(Cc1ccc(OC)c(OC)c1)OC(=O)/C=C/c1ccc(C(F)(F)F)cc1 (stereo not given)
pIC50 (Interstitial collagenase): < 4.00

C=CCOC(=O)C(Cc1ccc(OC)c(OC)c1)OC(=O)/C=C/c1ccc(Cl)cc1 (stereo not given)
pIC50 (Interstitial collagenase): < 4.00

COc1ccc(CC(OC(=O)/C=C/c2ccc(Br)cc2)C(=O)O)cc1OC (stereo not given)
pIC50 (Interstitial collagenase): 4.97

COc1ccc(CC(OC(=O)/C=C/c2ccccc2F)C(=O)O)cc1OC (stereo not given)
pIC50 (Interstitial collagenase): 4.46

COc1ccc(CC(OC(=O)/C=C/c2ccc(OCc3ccccc3)cc2)C(=O)NO)cc1OC (stereo not given)
pIC50 (Interstitial collagenase): 5.44

COc1ccc(CC(OC(=O)/C=C/c2ccc3ccccc3c2)C(=O)NO)cc1OC (stereo not given)
pIC50 (Interstitial collagenase): 5.17

COc1ccc(CC(OC(=O)/C=C/c2ccc([N+](=O)[O-])cc2)C(=O)O)cc1OC (stereo not given)
pIC50 (Interstitial collagenase): 4.41

C=CCOC(=O)C(Cc1ccc(OC)c(OC)c1)OC(=O)/C=C/c1ccc([N+](=O)[O-])cc1 (stereo not given)
pIC50 (Interstitial collagenase): < 4.00

COc1ccc(CC(OC(=O)/C=C/c2ccc(C)cc2)C(=O)O)cc1OC (stereo not given)
pIC50 (Interstitial collagenase): < 4.00

COc1ccc(CC(OC(=O)/C=C/c2ccc(OCc3ccccc3)cc2)C(=O)O)cc1OC (stereo not given)
pIC50 (Interstitial collagenase): 5.05

COc1ccc(CC(OC(=O)/C=C/c2ccc(C(F)(F)F)cc2)C(=O)O)cc1OC (stereo not given)
pIC50 (Interstitial collagenase): 4.41

COc1ccc(CC(OC(=O)/C=C/c2ccc(OCc3ccccc3)c(OCc3ccccc3)c2)C(=O)NO)cc1OC (stereo not given)
pIC50 (Interstitial collagenase): 5.38

COc1ccc(CC(OC(=O)/C=C/c2ccc(-c3ccccc3)cc2)C(=O)NO)cc1OC (stereo not given)
pIC50 (Interstitial collagenase): 5.26

COc1ccc(CC(OC(=O)/C=C/c2ccc(O)c(O)c2)C(=O)O)cc1OC (stereo not given)
pIC50 (Interstitial collagenase): 4.86

C=CCOC(=O)C(Cc1ccc(OC)c(OC)c1)OC(=O)/C=C/c1ccc(Br)cc1 (stereo not given)
pIC50 (Interstitial collagenase): < 4.00

O=C(/C=C/c1ccc(O)c(O)c1)O[C@H](Cc1ccc(O)c(O)c1)C(=O)O [ROSMARINIC ACID]
pIC50 (Interstitial collagenase): 5.25

COc1ccc(CC(OC(=O)/C=C/c2ccccc2)C(=O)O)cc1OC (stereo not given)
pIC50 (Interstitial collagenase): 4.27

COc1ccc(CC(OC(=O)/C=C/c2ccc(Cl)cc2)C(=O)O)cc1OC (stereo not given)
pIC50 (Interstitial collagenase): 4.37

COc1ccc(CC(OC(=O)/C=C/c2ccc(F)cc2)C(=O)O)cc1OC (stereo not given)
pIC50 (Interstitial collagenase): 4.38

COc1ccc(CC(OC(=O)/C=C/c2ccc3c(c2)OCC3)C(=O)O)cc1OC (stereo not given)
pIC50 (Interstitial collagenase): < 4.00

COc1ccc(C[C@H](OC(=O)/C=C/c2ccc(OCc3ccccc3)c(OCc3ccccc3)c2)C(=O)O)cc1OC
pIC50 (Collagenase 3): 5.27 | pIC50 [1]: 5.64 | pIC50 (Stromelysin-1): 5.47 | pIC50 [2]: 5.22 | pIC50 [3]: 5.52 | pIC50 (Interstitial collagenase): 6.10

COc1ccc(C[C@@H](OC(=O)/C=C/c2ccc(OCc3ccccc3)c(OCc3ccccc3)c2)C(=O)O)cc1OC
pIC50 (Collagenase 3): 5.35 | pIC50 [1]: 5.68 | pIC50 (Stromelysin-1): 5.40 | pIC50 [2]: 5.17 | pIC50 [3]: 5.49 | pIC50 (Interstitial collagenase): 6.40

COc1ccc(CC(OC(=O)/C=C/c2ccc3c(c2)OCC3)C(=O)NO)cc1OC (stereo not given)
pIC50 (Interstitial collagenase): 4.97
